# According to article PMC11211886 (Frontiers in Pharmacology, 2024):
# Values joined by “and” are separate entries in the source; they are usually repeats but may differ in a detail not shown here. Equal entries are not always repeated. Where two headings read alike, the source gives them in different places.
# Assays:
# [1] = molecular target: T1, CYP1A2 (Homo sapiens, UniProt P05177); assay: Time-dependent CYP inhibition in HLM, CYP1A2; format: in vitro ADME; details: 10 μM, 30 min pre-incubation with NADPH
# T1 construct: tissue Life Technologies (Durham, NC, USA); host or cells: human liver microsomes
# T1 sequence (P05177 1-516): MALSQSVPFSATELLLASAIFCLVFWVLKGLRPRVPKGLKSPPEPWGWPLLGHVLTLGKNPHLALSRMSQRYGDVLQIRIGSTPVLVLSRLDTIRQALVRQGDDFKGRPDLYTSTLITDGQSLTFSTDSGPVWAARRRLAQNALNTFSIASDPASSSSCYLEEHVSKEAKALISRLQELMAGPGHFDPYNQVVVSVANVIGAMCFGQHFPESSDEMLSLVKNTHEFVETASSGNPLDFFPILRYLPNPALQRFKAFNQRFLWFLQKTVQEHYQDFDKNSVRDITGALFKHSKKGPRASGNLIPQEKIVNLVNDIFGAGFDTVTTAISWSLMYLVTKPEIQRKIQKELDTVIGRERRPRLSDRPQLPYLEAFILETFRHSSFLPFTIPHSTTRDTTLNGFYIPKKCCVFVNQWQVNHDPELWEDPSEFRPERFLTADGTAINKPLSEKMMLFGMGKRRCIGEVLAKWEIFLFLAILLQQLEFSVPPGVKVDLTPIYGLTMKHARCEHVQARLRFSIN
# Method: The procedure of time-dependent CYP inhibition was similar to that used for CYP reversible inhibition, as mentioned above, except that a pre-incubation step was added. […] Another appropriate volume of the NADPH-regenerating system and probe substrate were added to initiate the CYP isoform enzyme activity test step. For this step, the incubation period was 10 min, except for CYP2B6, CYP2C8, and CYP3A4/5 (probe substrate: midazolam), which was 3 min to make sure the reaction was under initial linear rates. After incubation for the designated time periods at 37°C, the ice-cold acetonitrile containing IS was added to quench the reaction. […] (Ainactivator/[…] represents the enzyme activity remaining due to the inhibition by the diluted inactivator in the enzyme activity test step, and (Ainactivator/[…] represents the remaining enzyme activity due to pre-incubation loss plus inhibition by the diluted inactivator in the enzyme activity test step.
# [2] = Metabolic stability in mouse liver microsomes; format: in vitro ADME
# Method: FMO was deactivated by heating liver microsomes at 45°C for 5 min. […] (1) metabolic clearance is the major mechanism of clearance; (2) liver is the major organ of clearance; and (3) oxidation is the major metabolic pathway. CLint,in vitro=k / Cmicrosomes , Scaled CLint,in vivo=CLint,in vitro×microsomes yield×liver weight, where Cmicrosomes means the experimental protein concentration (0.5 mg/mL) in the incubation system.
# [3] = system: CYP3A4/5; assay: Reversible CYP inhibition in HLM, CYP3A4/5 (testosterone, midazolam); format: in vitro ADME, human
# Method: (§1) The markers used to determine the activities of CYP isoforms were phenacetin O-deethylation for CYP1A2 (probe substrate: 50 µM phenacetin), bupropion hydroxylation for CYP2B6 (probe substrate: 70 µM bupropion), paclitaxel 6α-hydroxylation for CYP2C8 (probe substrate: 10 µM paclitaxel), diclofenac 4′-hydroxylation for CYP2C9 (probe substrate: 5 µM diclofenac), S-(+)-mephenytoin 4′-hydroxylation for CYP2C19 (probe substrate: 20 µM S-(+)-mephenytoin), dextromethorphan O-demethylation for CYP2D6 (probe substrate: 6 µM dextromethorphan), chlorzoxazone 6′-hydroxylation for CYP2E1 (probe substrate: 70 µM chlorzoxazone), and testosterone 6β-hydroxylation and midazolam 1′-hydroxylation for CYP3A4/5 (probe substrate: 45 µM testosterone and 5 µM midazolam). […] Alpha-naphthoflavone (0.04 µM), 2-phenyl-2-(1-piperidinyl)propane (5 µM), quercetin (1 µM), sulfaphenazole (0.5 µM), ticlopidine (4 µM), quinidine (0.2 µM), diethyldithiocarbamate (20 µM), and ketoconazole (0.05 µM) were used as positive inhibitors of CYP1A2, 2B6, 2C8, 2C9, 2C19, 2D6, 2E1, and 3A4, respectively. The vehicle control was prepared in the same composition as inhibitor solutions but free of inhibitors. The concentrations of probe substrates were close to Km values that were determined in-house and within the range recommended by the FDA ([Huang et al., 2007]). Reaction mixtures were incubated at 37°C for 5, 20, or 30 min, depending on the probe substrates of CYP isoforms. The reactions were terminated by adding cold acetonitrile containing IS, and the terminated incubation mixtures were centrifuged at 3,000 g for 10 min before LC-MS/MS analysis.
# [4] = cited from earlier work
# [5] = molecular target: T2, CYP2E1 (Homo sapiens, UniProt P05181); assay: Reversible CYP inhibition in HLM, CYP2E1 (chlorzoxazone); format: in vitro ADME; details: for enzyme activity remaining: CYP2E1, HLM
# T2 construct: tissue Life Technologies (Durham, NC, USA); host or cells: human liver microsomes
# T2 sequence (P05181 whole entry): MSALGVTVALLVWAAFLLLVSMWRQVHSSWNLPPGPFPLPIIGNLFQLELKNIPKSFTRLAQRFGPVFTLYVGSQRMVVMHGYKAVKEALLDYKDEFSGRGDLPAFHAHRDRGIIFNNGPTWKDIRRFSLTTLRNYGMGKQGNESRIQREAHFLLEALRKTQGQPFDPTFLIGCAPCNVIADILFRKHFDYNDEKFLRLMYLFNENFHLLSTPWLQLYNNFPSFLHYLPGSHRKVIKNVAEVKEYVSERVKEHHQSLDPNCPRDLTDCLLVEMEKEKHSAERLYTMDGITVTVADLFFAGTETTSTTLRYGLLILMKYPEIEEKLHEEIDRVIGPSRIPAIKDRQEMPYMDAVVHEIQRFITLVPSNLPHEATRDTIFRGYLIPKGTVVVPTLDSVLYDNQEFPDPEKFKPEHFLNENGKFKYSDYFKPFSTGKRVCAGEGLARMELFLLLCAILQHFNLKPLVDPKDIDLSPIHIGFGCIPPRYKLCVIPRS
# Method: as §1
smiles,measurement,setting,value
C[C@H](Nc1ncnc(N)c1C#N)c1cc2ncc(Cl)n2nc1-c1ccccc1 [Amdizalisib],activity loss of CYP1A2,[1],less than 10%
same,CLint scaled at 1 µM,"[2]; female, mouse, microsomes, pH 7.4, Predicted CL int, iv vivo",52.8 mL/min/kg
same,half-life at 1 µM,"[2]; female, mouse, microsomes, pH 7.4, in vitro t1/2",1.7 h
same,CLint scaled at 1 µM,"[2]; male, mouse, microsomes, pH 7.4, Predicted CL int, iv vivo",50.4 mL/min/kg
same,half-life at 1 µM,"[2]; male, mouse, microsomes, pH 7.4, in vitro t1/2",1.8 h
same,half-life at 1 µM,"[2]; pH 7.4, female mouse liver microsomes, FMO deactivation, read-out: in vitro t1/2",1.72 h
same,CLint scaled at 1 µM,"[2]; pH 7.4, female mouse liver microsomes, normal, read-out: Predicted CL int, iv vivo",53.6 mL/min/kg
same,enzyme activity remaining,"[3]; CYP3A4_Midazolam, 0.08 μM",93.8% and 105%
same,enzyme activity remaining,"[3]; CYP3A4_Midazolam, 0.4 μM",106% and 103%
same,enzyme activity remaining,"[3]; CYP3A4_Midazolam, 2 μM",103% and 100%
same,enzyme activity remaining,"[3]; CYP3A4_Midazolam, 10 μM",99.4% and 101%
same,enzyme activity remaining,"[3]; CYP3A4_Midazolam, 50 μM",89.1% and 86.3%
same,enzyme activity remaining,"[3]; CYP3A4_Testosterone, 0.08 μM",101% and 99.4%
same,enzyme activity remaining,"[3]; CYP3A4_Testosterone, 0.4 μM",86.1% and 90.5%
same,enzyme activity remaining,"[3]; CYP3A4_Testosterone, 2 μM",89.9% and 94.3%
same,enzyme activity remaining,"[3]; CYP3A4_Testosterone, 10 μM",83.5% and 84.8%
same,enzyme activity remaining,"[3]; CYP3A4_Testosterone, 50 μM",86.7% and 69.0%
same,IC50,"[3]; human, human liver microsomes, reversible, without pre-incubation",> 50 µM
same,maximal unbound plasma concentration at steady state,[4]; 30 mg QD in humans,~52.1 nM
same,observed human value (Vss/F),[4]; human,2.33 L/kg
same,reported human CLss/F,[4]; human,3.25 mL/min/kg
same,enzyme activity remaining,[5]; 0.08 μM,99.7% and 97.6%
same,enzyme activity remaining,[5]; 0.4 μM,99.0% and 96.9%
same,enzyme activity remaining,[5]; 2 μM,101% and 95.5%
same,enzyme activity remaining,[5]; 10 μM,105% and 97.6%
same,enzyme activity remaining,[5]; 50 μM,118% and 113%
same,IC50,"[5]; HLM, reversible, without pre-incubation",> 50 µM
